Where two headings read alike, the source gives them in different places.
Experiments:
DNA-PK = DNA-PK (Homo sapiens (Human), UniProt P78527); test: DNA-PK assay (biochemical), flashplate 33P-ATP kinase assay
Protocol: A) DNA-PK Assay (Biochemical)
The kinase assay was carried out in streptavidin-coated […] microtitre flashplates. […] The reaction was stopped using 50 μl/well of 200 mM EDTA. After incubation for a further 30 min at room temperature, the liquid was removed. Each well was washed three times with 100 μl of 0.9% saline solution. A nonspecific reaction (blank value) was determined using 10 μM of an innate kinase inhibitor. The radioactivity measurement was carried out using a TopCount. IC50 values were calculated in RS1.

[1] = biological target: DNA-PK phosphorylation at serine 2056 (Homo sapiens (Human), UniProt P78527); test: DNA-PK phosphorylation at serine 2056 (cellular), bleomycin-treated HCT116 cells, ELISA; assay type: cell-based; settings: read-out: IC50 pDNA-PK
Protocol: HCT116 cells were cultivated at 37° C. and 10% CO2 in MEM alpha medium with 10% of foetal calf serum and 2 mM glutamine. The cells were detached from the base of the culture vessels with the aid of trypsin/EDTA, centrifuged off in centrifuge tubes, taken up in fresh medium, and the cell density was determined. 100,000 cells were sown in 1 ml of culture medium per cavity of a 24-well cell culture plate and cultivated overnight. Next day, 10 μM bleomycin (DNA intercalator and inductor of DNA double-strand breaks) and test substances in fresh culture medium were added to the cells, and these were cultivated for a further six hours. […] The 96-well ELISA plates were subsequently treated with a detection antibody (Abcam ab79444: total DNA-PK) and a streptavidin-HRP conjugate. The development of the enzymatic reaction was carried out with the aid of a chemiluminescent reagent, the chemiluminescence was measured with the aid of a Mithras LB940. The signals with the phospho-DNA-PK-specific antibody were standardised to the signal with the antibody against the total protein DNA-PKc. […] The DMSO control was used as blank.

Kv11.1 (hERG) = Kv11.1 (hERG) (Homo sapiens (Human), UniProt Q12809); test: Kv11.1 (hERG) ion channel activity (patch clamp assay), HEK293 cells transfected with hERG gene
Sequence of Kv11.1 (hERG) (Q12809 whole entry): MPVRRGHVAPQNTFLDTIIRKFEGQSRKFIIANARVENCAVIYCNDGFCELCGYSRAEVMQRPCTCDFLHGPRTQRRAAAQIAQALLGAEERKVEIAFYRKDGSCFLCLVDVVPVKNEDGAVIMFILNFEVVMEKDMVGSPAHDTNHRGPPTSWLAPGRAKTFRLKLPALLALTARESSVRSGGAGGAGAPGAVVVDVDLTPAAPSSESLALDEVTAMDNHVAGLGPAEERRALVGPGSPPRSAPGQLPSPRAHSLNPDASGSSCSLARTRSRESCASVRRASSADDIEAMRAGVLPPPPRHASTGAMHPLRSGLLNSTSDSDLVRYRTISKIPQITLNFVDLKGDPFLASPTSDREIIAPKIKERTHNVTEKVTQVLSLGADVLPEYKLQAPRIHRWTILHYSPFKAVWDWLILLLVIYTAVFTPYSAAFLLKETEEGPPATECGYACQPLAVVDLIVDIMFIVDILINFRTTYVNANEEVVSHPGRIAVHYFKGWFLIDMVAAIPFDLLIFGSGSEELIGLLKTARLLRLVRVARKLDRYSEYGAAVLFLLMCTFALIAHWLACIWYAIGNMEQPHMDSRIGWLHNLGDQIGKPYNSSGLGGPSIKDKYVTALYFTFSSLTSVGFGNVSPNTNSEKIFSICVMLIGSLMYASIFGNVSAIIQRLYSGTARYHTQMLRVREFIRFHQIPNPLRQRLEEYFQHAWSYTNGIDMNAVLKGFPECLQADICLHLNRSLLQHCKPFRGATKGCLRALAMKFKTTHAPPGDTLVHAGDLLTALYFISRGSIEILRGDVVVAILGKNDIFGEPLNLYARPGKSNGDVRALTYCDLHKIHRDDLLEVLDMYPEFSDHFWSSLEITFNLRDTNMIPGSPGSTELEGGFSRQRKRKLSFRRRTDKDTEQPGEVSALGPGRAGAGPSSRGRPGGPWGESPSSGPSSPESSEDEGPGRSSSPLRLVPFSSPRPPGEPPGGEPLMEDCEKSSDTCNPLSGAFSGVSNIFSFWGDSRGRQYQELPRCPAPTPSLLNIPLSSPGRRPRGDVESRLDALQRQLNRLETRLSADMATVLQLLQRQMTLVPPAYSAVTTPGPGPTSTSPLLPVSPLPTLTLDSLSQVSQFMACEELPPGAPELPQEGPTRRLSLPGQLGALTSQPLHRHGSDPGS
Protocol: C) Kv11.1 (hERG) Ion Channel Activity (Patch Clamp Assay)
The patch-clamp measurement was carried out at room temperature in whole-cell configuration on human embryonic kidney cells (HEK293) which have been transfected in a stable manner with the hERG gene.
The whole-cell configurations were carried out using an automated patch clamp device (Patchliner™, Nanion Technologies, Munich). […] The glass chip has a hole of defined size to which the cell is transferred into the Gigaseal by application of a reduced pressure and brought into the whole-cell configuration. Buffer, cell suspension and test substances were added to microchannels of the chip using a Teflon-coated pipette. The cells were clamped to a holding potential of −80 mV. For measurement of substance-promoted inhibition of the Kv11.1 channel, the following voltage protocol was applied at 10-second intervals: 51 ms/−80 mV, 500 ms/+40 mV, 500 ms/−40 mV, 200 ms/−80 mV. The leakage current is subtracted by means of the P4 method. The cells were resuspended in extracellular buffer (EC) and applied to the chip. After the cell had been collected, the seal was improved by addition of a seal enhancer buffer. As soon as the whole-cell configuration had been reached, the seal enhancer buffer was washed out and replaced by extracellular buffer. The measurement started in EC for 1.5 min. DMSO (vehicle control, 0.1% of DMSO) was then applied, and the control current was recorded for 3 min. The test substance was subsequently added twice in the same concentration, and the potassium current was measured for 3.5 min in each case.
The reference substance used was the Kv11.1 (hERG) ion channel blocker quinidine. The effects of test substances and quinidine were standardised to the associated vehicle control. The effect on the Kv11.1 (hERG) channel activity was assessed from the potassium current at −40 mV. For the calculation, the current was evaluated for the respective final trace.
During the measurement, an aliquot of the test substance was taken for concentration determination. The sample was measured immediately by HPLC, and the final concentration was determined from a calibration curve.

[2] = cellular, HCT116 cells, 10 μM bleomycin, six hours
[3] = human, HEK293 cells stably transfected with the hERG gene, Ki [Kv1.11 hERG], patch clamp, HEK293 transfected with hERG gene
[4] = Ki [Kv1.11 hERG], patch clamp, HEK293 transfected with hERG gene
[5] = read-out: Ki [Kv1.11 hERG], patch clamp, HEK293 transfected with hERG gene
[6] = cellular DNA-PK phosphorylation at serine 2056, HCT116
[7] = read-out: Ki [Kv1.11 hERG], hERG patch clamp assay (cells without asterisk)
[8] = human, HEK293 cells stably transfected with the hERG gene, Ki [Kv1.11 hERG], hERG patch clamp assay (cells without asterisk)

SMILES	IC50 (DNA-PK; enzymatic, 5 μM ATP) [µM]	IC50 [1, 2] [µM]	Ki (Kv11.1 (hERG); [4]) [µM]	further results
OC(c1ccc(F)c(-c2ncnc3cc(N4CCOCC4)sc23)c1)c1nccnc1Cl (single isomer, unassigned) [Example 24, (3-Chloro-pyrazin-2-yl)-[4-fluoro-3-(6-morpholin-4-yl-thieno-[3,2-d}pyrimidin-4-yl)-phenyl]methanol]	< 0.003	< 0.5	–	Ki (Kv11.1 (hERG); [3]): 15 to 25 µM
OC(c1cccnn1)c1cc(-c2ncnc3cc(N4CCOCC4)ccc23)c(F)cc1Cl (single isomer, unassigned) [Example 29, [2-Chloro-4-fluoro-5-(7-morpholin-4-yl-quinazolin-4-yl)phenyl]-pyridazin-3-ylmethanol]	0.007 to 0.03	10 to 30	–	Ki (Kv11.1 (hERG); [3]): 15 to 25 µM
Cn1nc(C(O)c2cc(-c3ncnc4cc(N5CCOCC5)ccc34)c(F)cc2Cl)ccc1=O (single isomer, unassigned) [Example 44, 6-{[2-Chloro-4-fluoro-5-(7-morpholin-4-yl-quinazolin-4-yl)phenyl]-hydroxymethyl}-2-methyl-2H-pyridazin-3-one]	0.007 to 0.03	5 to 10	15 to 25	–
Cn1nc(C(O)c2cc(-c3ncnc4cc(N5CCOCC5)ccc34)c(F)cc2Cl)ccc1=O (single isomer, unassigned) [Example 45, 6-{[2-Chloro-4-fluoro-5-(7-morpholin-4-yl-quinazolin-4-yl)phenyl]-hydroxymethyl}-2-methyl-2H-pyridazin-3-one]	< 0.003	< 0.5	–	Ki (Kv11.1 (hERG); [5]): 15 to 25 µM
CC(C#N)Oc1ccc(C(O)c2cc(-c3ncnc4cc(N5CCOCC5)ccc34)c(F)cc2Cl)nn1 (single isomer, unassigned) [Example 102, 2-(6-{[2-Chloro-4-fluoro-5-(7-morpholin-4-yl-quinazolin-4-yl)-phenyl)hydroxy-methyl}pyridazin-3-yloxy)propionitrile]	< 0.003	< 0.5	15 to 25	–
CC(C#N)Oc1ccc(C(O)c2cc(-c3ncnc4cc(N5CCOCC5)ccc34)c(F)cc2Cl)nn1 (single isomer, unassigned) [Example 103, 2-(6-{[2-Chloro-4-fluoro-5-(7-morpholin-4-yl-quinazolin-4-yl)-phenyl]hydroxy-methyl}pyridazin-3-yloxy)propionitrile]	> 0.03	10 to 30	–	Ki (Kv11.1 (hERG); [5]): > 25 µM
CC(C#N)Oc1ccc(C(O)c2cc(-c3ncnc4cc(N5CCOCC5)ccc34)c(F)cc2Cl)nn1 (single isomer, unassigned) [Example 104, 2-(6-{[2-Chloro-4-fluoro-5-(7-morpholin-4-yl-quinazolin-4-yl)-phenyl]hydroxy-methyl}pyridazin-3-yloxy)propionitrile]	0.007 to 0.03	0.5 to 5	–	Ki (Kv11.1 (hERG); [5]): 15 to 25 µM
COc1ccc(C(O)c2cc(-c3ncnc4cc(N5CCOCC5)sc34)c(F)cc2Cl)nn1 (single isomer, unassigned) [Example 126, [2-Chloro-4-fluoro-5-(6-morpholin-4-ylthieno[3,2-d}-pyrimidin-4-yl)-phenyl]-(6-methoxy-pyridazin-3-yl)-methanol]	< 0.003	< 0.5	–	Ki (Kv11.1 (hERG); [3]): 10 to 15 µM
COc1ccc(C(O)c2cc(-c3ncnc4cc(N5CCOCC5)cc(F)c34)c(F)cc2Cl)nn1 (single isomer, unassigned) [Example 271, [2-Chloro-4-fluoro-5-(5-fluoro-7-morpholin-4-yl-quinazolin-4-yl)-phenyl]-(6-methoxy-pyridazin-3-yl)-methanol]	–	–	–	IC50 (DNA-PK; biochemical DNA-PK assay): < 0.003 µM; IC50 [1, 6]: < 0.5 µM; Ki (Kv11.1 (hERG); [7]): > 25 µM
Cn1c(C(O)c2cc(-c3ncnc4cc(N5CCOCC5)ccc34)ccc2Cl)cccc1=O (single isomer, unassigned) [Example 363, 6-{[2-Chloro-5-(7-morpholin-4-yl-quinazolin-4-yl)-phenyl]hydroxy-methyl}-1-methyl-1H-pyridin-2-one]	–	–	–	IC50 (DNA-PK; biochemical DNA-PK assay): 0.007 to 0.03 µM; IC50 [1, 6]: 5 to 10 µM; Ki (Kv11.1 (hERG); Ki [Kv1.11 hERG], hERG patch clamp assay (cells without asterisk)): 15 to 25 µM
Cn1c(C(O)c2cc(-c3ncnc4cc(N5CCOCC5)ccc34)ccc2Cl)cccc1=O (single isomer, unassigned) [Example 364, 6-{[2-Chloro-5-(7-morpholin-4-yl-quinazolin-4-yl)-phenyl]hydroxy-methyl}-1-methyl-1H-pyridin-2-one]	–	–	–	IC50 (DNA-PK; biochemical DNA-PK assay): < 0.003 µM; IC50 [1, 6]: < 0.5 µM; Ki (Kv11.1 (hERG); [7]): > 25 µM
OC(c1cc(-c2ncnc3cc(N4CCOCC4)ccc23)c(F)cc1Cl)c1nccn2ccnc12 (single isomer, unassigned) [Example 395, [2-Chloro-4-fluoro-5-(7-morpholin-4-yl-quinazolin-4-yl)-phenyl)imidazo-[1,2-a]pyrazin-8-yl-methanol]	–	–	–	IC50 (DNA-PK; biochemical DNA-PK assay): 0.007 to 0.03 µM; IC50 [1, 6]: 5 to 10 µM; Ki (Kv11.1 (hERG); [8]): 15 to 25 µM
OC(c1cc(-c2ncnc3cc(N4CCOCC4)ccc23)c(F)cc1Cl)c1nccn2ccnc12 (single isomer, unassigned) [Example 396]	–	–	–	IC50 (DNA-PK; biochemical DNA-PK assay): 0.003 to 0.007 µM; IC50 [1, 6]: < 0.5 µM; Ki (Kv11.1 (hERG); [7]): > 25 µM
OC(c1cccnn1)c1cc(-c2ncnc3cc(N4CCOCC4)ccc23)ccc1Cl (single isomer, unassigned) [Example 469, [2-Chloro-5-(7-morpholin-4-yl-quinazolin-4-yl)-phenyl]pyridazin-3-yl-methanol]	–	–	–	IC50 (DNA-PK; biochemical DNA-PK assay): > 0.03 µM; IC50 [1, 6]: 10 to 30 µM; Ki (Kv11.1 (hERG); [8]): 10 to 15 µM
OC(c1cccnn1)c1cc(-c2ncnc3cc(N4CCOCC4)ccc23)ccc1Cl (single isomer, unassigned) [Example 470, [2-Chloro-5-(7-morpholin-4-yl-quinazolin-4-yl)-phenyl]pyridazin-3-yl-methanol]	–	–	–	IC50 (DNA-PK; biochemical DNA-PK assay): 0.003 to 0.007 µM; IC50 [1, 6]: < 0.5 µM; Ki (Kv11.1 (hERG); [7]): > 25 µM
OC(c1ccc(F)c(-c2ncnc3cc(N4CCOCC4)ccc23)c1)c1c(F)cncc1F (stereo not drawn) [Example 1, (3,5-Difluoropyridin-4-yl)-[4-fluoro-3-(7-morpholin-4-ylquinazolin-4-yl)phenyl]methanol]	0.003 to 0.007	0.5 to 5	15 to 25	–
OC(c1ccc(F)c(-c2ncnc3cc(N4CCOCC4)ccc23)c1)c1cncc(F)c1Cl (stereo not drawn) [Example 2, (4-Chloro-5-fluoropyridin-3-yl)-[4-fluoro-3-(7-morpholin-4-ylquinazolin-4-yl)phenyl]methanol]	0.003 to 0.007	< 0.5	10 to 15	–
COc1ccnnc1C(O)c1cc(-c2ncnc3cc(N4CCOCC4)ccc23)c(F)cc1Cl (stereo not drawn) [Example 3, [2-Chloro-4-fluoro-5-(7-morpholin-4-yl-quinazolin-4-yl)phenyl]-(4-methoxy-pyridazin-3-yl)methanol]	0.003 to 0.007	0.5 to 5	–	Ki (Kv11.1 (hERG); [5]): > 25 µM
O=c1[nH]ccnc1C(O)c1ccc(F)c(-c2ncnc3cc(N4CCOCC4)ccc23)c1 (stereo not drawn) [Example 5, 3-{[4-Fluoro-3-(7-morpholin-4-yl-quinazolin-4-yl)phenyl]-hydroxymethyl]-1H-pyrazin-2-one]	> 0.03	10 to 30	15 to 25	–
COc1cc(C(O)c2ccc(F)c(-c3ncnc4cc(N5CCOCC5)ccc34)c2)c(Cl)nn1 (stereo not drawn) [Example 7, (3-Chloro-6-methoxy-pyridazin-4-yl)-[4-fluoro-3-(7-morpholin-4-yl-quinazolin-4-yl)phenyl]-methanol]	0.003 to 0.007	< 0.5	15 to 25	–
COc1cc(Cl)nnc1C(O)c1cc(-c2ncnc3cc(N4CCOCC4)ccc23)c(F)cc1Cl (stereo not drawn) [Example 8, [2-Chloro-4-fluoro-5-(7-morpholin-4-yl-quinazolin-4-yl)phenyl]-(6-chloro-4-methoxy-pyridazin-3-yl)methanol]	0.007 to 0.03	0.5 to 5	10 to 15	–
COc1cc(Cl)nnc1C(O)c1ccc(F)c(-c2ncnc3cc(N4CCOCC4)ccc23)c1 (stereo not drawn) [Example 10, (6-Chloro-4-methoxy-pyridazin-3-yl)-[4-fluoro-3-(7-morpholin-4-yl-quinazolin-4-yl)phenyl]-methanol]	0.003 to 0.007	< 0.5	–	Ki (Kv11.1 (hERG); [5]): > 25 µM
CC(C)(C)Oc1nccnc1C(O)c1ccc(F)c(-c2ncnc3cc(N4CCOCC4)ccc23)c1 (stereo not drawn) [Example 13, (3-tert-Butoxy-pyrazin-2-yl)-[4-fluoro-3-(7-morpholin-4-yl-quinazolin-4-yl)phenyl]-methanol]	> 0.03	10 to 30	10 to 15	–
OC(c1ccc(F)c(-c2ncnc3cc(N4CCOCC4)ccc23)c1)c1nccnc1N1CCCC1 (stereo not drawn) [Example 14, [4-Fluoro-3-(7-morpholin-4-yl-quinazolin-4-yl)phenyl]-(3-pyrrolidin-1-yl-pyrazin-2-yl)methanol]	0.003 to 0.007	0.5 to 5	–	Ki (Kv11.1 (hERG); [5]): > 25 µM

— patent US9732094B2, “Arylquinazolines” (Merck Patent GmbH, priority 2013, dated 2017)
